{"source": "PubChem BioAssay AID1259411", "about": "(Chemical Carcinogenesis Research Information System (CCRIS), 2018)", "test_system": "rodent carcinogenicity bioassays, tumor incidence", "test": "CCRIS carcinogenicity studies", "outline": "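NCI-built, expert-reviewed records of carcinogenicity and related test outcomes (mutagenicity, tumor promotion/inhibition) compiled from published and report sources, historical span 1985-2011, not updated.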", "note": "Active and inactive are the calls of the source. The rule behind the calls is not given here."}
{"smiles": "CC(=O)Nc1nc(-c2ccc([N+](=O)[O-])o2)cs1", "values": [{"measurement": "carcinogen call", "setting": "Species: HAMSTER, Route: ORAL, Tumor Site: Type of Lesion: FORESTOMACH, URINARY BLADDER", "value": "active; positive"}, {"measurement": "carcinogen call", "setting": "Species: MOUSE, Route: ORAL, Tumor Site: Type of Lesion: FORESTOMACH, HEMATOPOIETIC SYSTEM (LEUKEMIA), LYMPHATIC SYSTEM: LYMPHATIC LEUKEMIA, Tumor Site: Type of Lesion: FORESTOMACH, HEMATOPOIETIC SYSTEM (LEUKEMIA), LYMPHATIC SYSTEM: LYMPHATIC LEUKEMIA", "value": "active; positive"}, {"measurement": "carcinogen call", "setting": "Species: RAT, Route: ORAL, Tumor Site: Type of Lesion: MAMMARY GLAND, LUNG, SALIVARY GLAND, Tumor Site: Type of Lesion: MAMMARY GLAND, LUNG, SALIVARY GLAND", "value": "active; positive"}]}
{"smiles": "CC(C)NCCCC1(C(N)=O)c2ccccc2-c2ccccc21", "values": [{"measurement": "carcinogen call", "setting": "Species: MOUSE, Strain/Sex: B6C3F1/FEMALE, Route: ORAL, Dose: 0, 0.02, 0.04, 0.08% IN DIET FOR APPROXIMATE DAILY DOSES OF 0, 27, 53, 113 MG/KG (STUDY DURATION: 2 YR), Dose: 0, 0.02, 0.04, 0.08% IN DIET FOR APPROXIMATE DAILY DOSES OF 0, 27, 53, 113 MG/KG (STUDY DURATION: 2 YR)", "value": "inactive; negative"}, {"measurement": "carcinogen call", "setting": "Species: MOUSE, Strain/Sex: B6C3F1/MALE, Route: ORAL, Dose: 0, 0.02, 0.04, 0.08% IN DIET FOR APPROXIMATE DAILY DOSES OF 0, 27, 53, 113 MG/KG (STUDY DURATION: 2 YR), Dose: 0, 0.02, 0.04, 0.08% IN DIET FOR APPROXIMATE DAILY DOSES OF 0, 27, 53, 113 MG/KG (STUDY DURATION: 2 YR)", "value": "inactive; negative"}, {"measurement": "carcinogen call", "setting": "Species: RAT, Strain/Sex: F344/FEMALE, Route: ORAL, Dose: 0, 0.02, 0.04, 0.08% IN DIET FOR APPROXIMATE DAILY DOSES OF 0, 9, 18, 37 MG/KG (STUDY DURATION: 2 YR), Dose: 0, 0.02, 0.04, 0.08% IN DIET FOR APPROXIMATE DAILY DOSES OF 0, 9, 18, 37 MG/KG (STUDY DURATION: 2 YR)", "value": "inactive; negative"}, {"measurement": "carcinogen call", "setting": "Species: RAT, Strain/Sex: F344/MALE, Route: ORAL, Dose: 0, 0.02, 0.04, 0.08% IN DIET FOR APPROXIMATE DAILY DOSES OF 0, 9, 18, 37 MG/KG (STUDY DURATION: 2 YR), Dose: 0, 0.02, 0.04, 0.08% IN DIET FOR APPROXIMATE DAILY DOSES OF 0, 9, 18, 37 MG/KG (STUDY DURATION: 2 YR)", "value": "inactive; negative"}]}
{"smiles": "CC(N)=S", "values": [{"measurement": "carcinogen call", "setting": "Species: MOUSE, Strain/Sex: SWISS, Route: ORAL, Dose: 0.03% IN DIET, Tumor Site: Type of Lesion: LIVER: CARCINOMA", "value": "active; positive"}, {"measurement": "carcinogen call", "setting": "Species: RAT, Strain/Sex: WISTAR/MALE,FEMALE, Route: ORAL, Dose: 0.032% IN DIET, Tumor Site: Type of Lesion: LIVER: BILE DUCT TUMOR, NOS", "value": "active; positive"}]}
{"smiles": "NC(N)=Nc1nc(CSCCN=CNS(=O)(=O)c2ccc(Br)cc2)cs1", "values": [{"measurement": "carcinogen call", "setting": "Species: MOUSE, Strain/Sex: CD-1/FEMALE, Route: ORAL, Dose: 0, 50, 200, 500 MG/KG FOR 18 MO (STUDY DURATION: 18 MO), Dose: 0, 50, 200, 500 MG/KG FOR 18 MO (STUDY DURATION: 18 MO)", "value": "inactive; negative"}, {"measurement": "carcinogen call", "setting": "Species: MOUSE, Strain/Sex: CD-1/MALE, Route: ORAL, Dose: 0, 50, 200, 500 MG/KG FOR 18 MO (STUDY DURATION: 18 MO), Dose: 0, 50, 200, 500 MG/KG FOR 18 MO (STUDY DURATION: 18 MO)", "value": "inactive; negative"}, {"measurement": "carcinogen call", "setting": "Species: RAT, Strain/Sex: SPRAGUE-DAWLEY/FEMALE, Route: ORAL, Dose: 0, 50, 200, 500 MG/KG FOR 13 MO THEN 0, 50, 150, 300, 500 MG/KG FOR DURATION OF STUDY (STUDY DURATION: 24 MO), Dose: 0, 50, 200, 500 MG/KG FOR 13 MO THEN 0, 50, 150, 300, 500 MG/KG FOR DURATION OF STUDY (STUDY DURATION: 24 MO)", "value": "inactive; negative"}, {"measurement": "carcinogen call", "setting": "Species: RAT, Strain/Sex: SPRAGUE-DAWLEY/FEMALE, Route: ORAL, Dose: INITIALLY: 0, 50, 200, 500 MG/KG BW, THEN 0, 50, 150, 300, 500 (200 MG/KG DOSE LOWERED TO 150 MG/KG AFTER 13 MONTHS AND, Dose: INITIALLY: 0, 50, 200, 500 MG/KG BW, THEN 0, 50, 150, 300, 500 (200 MG/KG DOSE LOWERED TO 150 MG/KG AFTER 13 MONTHS AND", "value": "inactive; negative"}, {"measurement": "carcinogen call", "setting": "Species: RAT, Strain/Sex: SPRAGUE-DAWLEY/MALE, Route: ORAL, Dose: 0, 50, 200, 500 MG/KG FOR 13 MO THEN 0, 50, 150, 300, 500 MG/KG FOR DURATION OF STUDY (STUDY DURATION: 24 MO), Dose: 0, 50, 200, 500 MG/KG FOR 13 MO THEN 0, 50, 150, 300, 500 MG/KG FOR DURATION OF STUDY (STUDY DURATION: 24 MO)", "value": "inactive; negative"}, {"measurement": "carcinogen call", "setting": "Species: RAT, Strain/Sex: SPRAGUE-DAWLEY/MALE, Route: ORAL, Dose: INITIALLY: 0, 50, 200, 500 MG/KG BW, THEN 0, 50, 150, 300, 500 (200 MG/KG DOSE LOWERED TO 150 MG/KG AFTER 13 MONTHS AND, Dose: INITIALLY: 0, 50, 200, 500 MG/KG BW, THEN 0, 50, 150, 300, 500 (200 MG/KG DOSE LOWERED TO 150 MG/KG AFTER 13 MONTHS AND", "value": "inactive; negative"}]}
{"smiles": "CCCCN(N=O)C(=O)CCC(=O)OCC", "values": [{"measurement": "carcinogen call", "setting": "Species: RAT, Strain/Sex: F344/MALE,FEMALE, Route: SUBCUTANEOUS, Dose: 38 UMOL/KG IN OLIVE OIL 1/WK FOR 10 WK, Tumor Site: Type of Lesion: INJECTION SITE: MALIGNANT FIBROUS HISTIOCYTOMA", "value": "active; positive"}]}
{"smiles": "C[N+]1(C)CCCCC1", "values": [{"measurement": "carcinogen call", "setting": "Species: Rat, Strain/Sex: Wistar/Female (50/Group), Route: Oral, Dose: 0, 17, 141, 370 mg/kg/day of 57.9% mepiquat chloride in diet for 24 mo, study duration 24 mo, Dose: 0, 17, 141, 370 mg/kg/day of 57.9% mepiquat chloride in diet for 24 mo, study duration 24 mo", "value": "inactive; negative"}, {"measurement": "carcinogen call", "setting": "Species: Rat, Strain/Sex: Wistar/Male (50/Group), Route: Oral, Dose: 0, 13, 105, 269 mg/kg/day of 57.9% mepiquat chloride in diet for 24 mo, study duration 24 mo, Dose: 0, 13, 105, 269 mg/kg/day of 57.9% mepiquat chloride in diet for 24 mo, study duration 24 mo", "value": "inactive; negative"}]}
{"smiles": "O=C(CO)[C@@H](O)[C@H](O)[C@H](O)CO", "values": [{"measurement": "carcinogen call", "setting": "Species: RAT, Strain/Sex: SPRAGUE-DAWLEY/MALE, Route: ORAL, Dose: 0, 120 G/L IN DRINKING WATER AD LIBITUM FOR 30 WK (STUDY DURATION: 501 D)", "value": "inactive; negative"}]}
{"smiles": "[C-]#[Si+]", "values": [{"measurement": "carcinogen call", "setting": "Species: RAT, Strain/Sex: AF/HAN, Route: INHALATION, Dose: 0, 1000 FIBERS/ML IN AIR 7 HR/D 5 D/WK FOR 1 YR (STUDY DURATION: LIFESPAN), Tumor Site: Type of Lesion: LUNG: ADENOMA, CARCINOMA", "value": "active; positive"}, {"measurement": "carcinogen call", "setting": "Species: RAT, Strain/Sex: F344/FEMALE, Route: INTRAPERITONEAL, Dose: 0, 20 MG SILICON CARBIDE WHISKERS ONCE (STUDY DURATION: LIFESPAN), Tumor Site: Type of Lesion: PLEURAL CAVITY: MESOTHELIOMA", "value": "active; positive"}]}
{"smiles": "O=C([O-])c1cc(N=Nc2ccc(-c3ccc(N/N=c4/c(=O)cc/c(=N\\Nc5cc(S(=O)(=O)[O-])ccc5[O-])c4=O)cc3)cc2)ccc1[O-].[Cu+2].[Na+].[Na+]", "values": [{"measurement": "carcinogen call", "setting": "Species: RAT, Strain/Sex: F344/FEMALE, Route: ORAL, Dose: 0, 190, 375, 750, 1500, 3000 PPM IN DIET FOR 91 D (STUDY DURATION: 93 D), Dose: 0, 190, 375, 750, 1500, 3000 PPM IN DIET FOR 91 D (STUDY DURATION: 93 D), Tumor Site: Type of Lesion: LIVER: HEPATOCELLULAR CARCINOMA OR NEOPLASTIC NODULE, FOCI OF CELLULAR ALTERATION OR BASOPHILIC FOCI", "value": "active; positive"}, {"measurement": "carcinogen call", "setting": "Species: RAT, Strain/Sex: F344/MALE, Route: ORAL, Dose: 0, 190, 375, 750, 1500, 3000 PPM IN DIET FOR 91 D (STUDY DURATION: 93 D), Dose: 0, 190, 375, 750, 1500, 3000 PPM IN DIET FOR 91 D (STUDY DURATION: 93 D), Tumor Site: Type of Lesion: LIVER: FOCI OF CELLULAR ALTERATION OR BASOPHILIC FOCI", "value": "active; positive"}]}
{"smiles": "CC(=O)N(C)C", "values": [{"measurement": "carcinogen call", "setting": "Species: MOUSE, Strain/Sex: CRL:CD-1 (ICR)BR/FEMALE, Route: INHALATION, Dose: 0, 25, 100, 350 PPM 6 HR/D 5 D/WK FOR 18 MO (STUDY DURATION: 18 MO), Dose: 0, 25, 100, 350 PPM 6 HR/D 5 D/WK FOR 18 MO (STUDY DURATION: 18 MO)", "value": "inactive; negative"}, {"measurement": "carcinogen call", "setting": "Species: MOUSE, Strain/Sex: CRL:CD-1 (ICR)BR/MALE, Route: INHALATION, Dose: 0, 25, 100, 350 PPM 6 HR/D 5 D/WK FOR 18 MO (STUDY DURATION: 18 MO), Dose: 0, 25, 100, 350 PPM 6 HR/D 5 D/WK FOR 18 MO (STUDY DURATION: 18 MO)", "value": "inactive; negative"}, {"measurement": "carcinogen call", "setting": "Species: RAT, Strain/Sex: CRL:CD BR/FEMALE, Route: INHALATION, Dose: 0, 25, 100, 350 PPM 6 HR/D 5 D/WK FOR 2 YR (STUDY DURATION: 2 YR), Dose: 0, 25, 100, 350 PPM 6 HR/D 5 D/WK FOR 2 YR (STUDY DURATION: 2 YR)", "value": "inactive; negative"}, {"measurement": "carcinogen call", "setting": "Species: RAT, Strain/Sex: CRL:CD BR/MALE, Route: INHALATION, Dose: 0, 25, 100, 350 PPM 6 HR/D 5 D/WK FOR 2 YR (STUDY DURATION: 2 YR), Dose: 0, 25, 100, 350 PPM 6 HR/D 5 D/WK FOR 2 YR (STUDY DURATION: 2 YR)", "value": "inactive; negative"}]}
